Test results taken from ChEMBL document CHEMBL1201862, “PubChem BioAssay data set” (2004).
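Assay format: 96-well plates, 48-hour exposure. The concentration for 50% growth inhibition is given as GI50.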 The source made the active and inactive calls. Rule as the data show it: active = GI50 up to about 1.1 µM and inactive = higher.

Columns and labels:
Assay in all cases: DTP human tumour cell line panel, 48 h
OVCAR-4 = tested on: OVCAR-4
SK-MEL-28 = tested on: SK-MEL-28
IGROV-1 = tested on: IGROV-1
SK-MEL-5 = tested on: SK-MEL-5
UACC-257 = tested on: UACC-257
PC-3 = tested on: PC-3
SF-268 = tested on: SF-268
SF-539 = tested on: SF-539
HCT-116 = tested on: HCT-116
SNB-19 = tested on: SNB-19
RXF 393 = tested on: RXF 393
HT-29 = tested on: HT-29
HOP-92 = tested on: HOP-92
NCI-H522 = tested on: NCI-H522
KM12 = tested on: KM12
NCI-H23 = tested on: NCI-H23
OVCAR-3 = tested on: OVCAR-3
Hs-578T = tested on: Hs-578T

Measured: GI50

CC(=O)Oc1cc2c(cc1OCC(F)(F)F)[C@H]1CC[C@]3(C)[C@@H](OC(C)=O)CC[C@H]3[C@@H]1CC2=O
inactive: OVCAR-4 17.5 µM | SK-MEL-28 22.2 µM | IGROV-1 18.7 µM | SK-MEL-5 17 µM | UACC-257 18.9 µM | PC-3 14.5 µM | SF-268 21.1 µM | SF-539 19.3 µM | HCT-116 19.3 µM | SNB-19 18.8 µM | RXF 393 13.9 µM | HT-29 23.9 µM | HOP-92 13.2 µM | NCI-H522 20 µM | KM12 27.7 µM | NCI-H23 21.2 µM | OVCAR-3 19.5 µM | Hs-578T 13.7 µM

COc1ccc(SCc2cc(OC)ccc2OC)cc1
inactive: OVCAR-4 20.8 µM | SK-MEL-28 64.3 µM | IGROV-1 15.9 µM | SK-MEL-5 16.1 µM | UACC-257 74 µM | PC-3 32.8 µM | SF-268 > 56.6 µM | SF-539 39.2 µM | HCT-116 33.8 µM | SNB-19 34 µM | RXF 393 40.6 µM | HT-29 13.7 µM | HOP-92 13.5 µM | NCI-H522 18.8 µM | KM12 4.23 µM | NCI-H23 37.9 µM | OVCAR-3 > 40.6 µM | Hs-578T 29.5 µM

N/C(=N\N=C\c1nc2ccccc2o1)c1cnccn1
inactive: OVCAR-4 > 100 µM | SK-MEL-28 > 100 µM | IGROV-1 > 100 µM | SK-MEL-5 > 100 µM | UACC-257 > 100 µM | PC-3 > 100 µM | SF-268 > 100 µM | SF-539 > 100 µM | HCT-116 > 100 µM | SNB-19 > 100 µM | RXF 393 49.5 µM | HT-29 > 100 µM | HOP-92 > 100 µM | NCI-H522 > 100 µM | KM12 > 100 µM | NCI-H23 83.8 µM | OVCAR-3 > 100 µM | Hs-578T > 100 µM

CN1C(=O)C(c2c[nH]c3ccccc23)N(C)C(=O)C1c1c[nH]c2ccccc12 (stereo not drawn)
inactive: OVCAR-4 > 100 µM | SK-MEL-28 > 100 µM | IGROV-1 > 100 µM | SK-MEL-5 > 100 µM | UACC-257 > 100 µM | PC-3 > 100 µM | SF-268 86.3 µM | SF-539 86.5 µM | HCT-116 > 100 µM | SNB-19 > 10 µM | RXF 393 46.9 µM | HT-29 > 100 µM | HOP-92 37.2 µM | NCI-H522 > 100 µM | KM12 > 100 µM | NCI-H23 > 100 µM | OVCAR-3 > 100 µM | Hs-578T 62.1 µM

N#CCCN(CCC#N)c1ccc(C(/N=N/c2ccc(Cl)cc2)=N\c2ccccc2)cc1
inactive: OVCAR-4 11.6 µM | SK-MEL-28 15.3 µM | IGROV-1 11.7 µM | SK-MEL-5 1.24 µM | UACC-257 7.83 µM | PC-3 12.6 µM | SF-268 13.2 µM | SF-539 14.9 µM | HCT-116 12.1 µM | SNB-19 12.2 µM | RXF 393 15.4 µM | HT-29 17.9 µM | HOP-92 16.4 µM | NCI-H522 15.1 µM | KM12 11.4 µM | NCI-H23 12.6 µM | OVCAR-3 9.77 µM | Hs-578T 18.9 µM

Oc1c(Cl)c(Cl)c(O)c(CCNc2ccc3ncccc3c2)c1Cl
inactive: OVCAR-4 79.6 µM | SK-MEL-28 24.5 µM | IGROV-1 5 µM | SK-MEL-5 1.88 µM | UACC-257 17.9 µM | PC-3 28 µM | SF-268 5.13 µM | SF-539 12.5 µM | HCT-116 14.5 µM | SNB-19 13.3 µM | RXF 393 18.9 µM | HT-29 30.1 µM | HOP-92 30.5 µM | NCI-H522 2.17 µM | KM12 3.91 µM | NCI-H23 10.2 µM | OVCAR-3 15.5 µM | Hs-578T 5.04 µM

O=C(c1ccccc1)c1ccc2c(c1)nc1n2C(c2c(Cl)cccc2Cl)SC1 (stereo not drawn)
inactive: OVCAR-4 75.7 µM | SK-MEL-28 > 100 µM | IGROV-1 > 100 µM | SK-MEL-5 27.5 µM | UACC-257 95.5 µM | PC-3 38.1 µM | SF-268 67.5 µM | SF-539 > 100 µM | HCT-116 29 µM | SNB-19 77.1 µM | RXF 393 79.8 µM | HT-29 56.1 µM | HOP-92 69 µM | NCI-H522 55.8 µM | KM12 19.9 µM | NCI-H23 47.4 µM | OVCAR-3 38.8 µM | Hs-578T 84.1 µM

Cc1ccc([N+](=O)[O-])cc1S(=O)(=O)Nc1ccc(C2=NNC(c3ccccc3)C2)cc1 (stereo not drawn)
inactive: OVCAR-4 14.5 µM | SK-MEL-28 25.2 µM | IGROV-1 16.3 µM | SK-MEL-5 14.7 µM | UACC-257 15.8 µM | PC-3 16.7 µM | SF-268 16.8 µM | SF-539 28.1 µM | HCT-116 13.1 µM | SNB-19 30.9 µM | RXF 393 8.36 µM | HT-29 27.4 µM | HOP-92 33.3 µM | NCI-H522 13.8 µM | KM12 13.4 µM | NCI-H23 15.8 µM | OVCAR-3 4.74 µM | Hs-578T 22.5 µM

CSc1cc(Cl)c(C(=O)Nc2ccccc2)cc1S(=O)(=O)n1ccnc1O
inactive: OVCAR-4 > 100 µM | SK-MEL-28 > 100 µM | IGROV-1 > 100 µM | SK-MEL-5 > 100 µM | UACC-257 > 100 µM | PC-3 > 100 µM | SF-268 > 100 µM | SF-539 > 100 µM | HCT-116 > 100 µM | SNB-19 > 100 µM | RXF 393 > 100 µM | HT-29 > 100 µM | HOP-92 > 100 µM | NCI-H522 > 100 µM | KM12 > 100 µM | NCI-H23 > 100 µM | OVCAR-3 > 100 µM | Hs-578T > 100 µM

O=C1c2ccccc2C(=O)c2c(NCC3CO3)cccc21 (stereo not drawn)
inactive: OVCAR-4 > 86.1 µM | SK-MEL-28 > 41.7 µM | IGROV-1 17.4 µM | SK-MEL-5 22.6 µM | UACC-257 > 56.2 µM | PC-3 16.9 µM | SF-268 7.5 µM | SF-539 > 45.3 µM | HCT-116 7.01 µM | SNB-19 > 57.3 µM | RXF 393 7.66 µM | HT-29 18.2 µM | HOP-92 94.4 µM | NCI-H522 23.2 µM | KM12 18.6 µM | NCI-H23 9.44 µM | OVCAR-3 15.4 µM | Hs-578T 38.4 µM

CC1(C)[C@@H]2CC[C@@]1(C)C1(S[S+]1[O-])C21Cc2ccccc2C1 (stereo partly drawn)
inactive: OVCAR-4 15.6 µM | SK-MEL-28 23.1 µM | IGROV-1 17.2 µM | SK-MEL-5 > 10 µM | UACC-257 20.9 µM | PC-3 17.9 µM | SF-268 33.1 µM | SF-539 24.5 µM | HCT-116 14.7 µM | SNB-19 > 100 µM | RXF 393 18.5 µM | HT-29 17.9 µM | HOP-92 23.3 µM | NCI-H522 15.8 µM | KM12 56.1 µM | NCI-H23 31.8 µM | OVCAR-3 31.7 µM | Hs-578T 44.2 µM
